Assay results published in ChEMBL document CHEMBL1201862, “PubChem BioAssay data set” (2004).
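A five-concentration, 48-hour dose response in 96-well plates underlies each endpoint, interpolated linearly between surrounding concentrations. GI50 is the concentration that inhibits growth by half.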 The source made the active and inactive calls. Rule as the data show it: active = GI50 up to about 1.1 µM and inactive = higher.

What was measured:
Assay in all cases: NCI-60 cell line screen, 48 h
SNB-19 = tested on: SNB-19
ACHN = tested on: ACHN
786-0 = tested on: 786-0
COLO 205 = tested on: COLO 205
BT-549 = tested on: BT-549
MDA-N = tested on: MDA-N
SK-MEL-5 = tested on: SK-MEL-5
SK-OV-3 = tested on: SK-OV-3
T47D = tested on: T47D
M14 = tested on: M14
IGROV-1 = tested on: IGROV-1
EKVX = tested on: EKVX
SF-295 = tested on: SF-295
OVCAR-5 = tested on: OVCAR-5
LOX IMVI = tested on: LOX IMVI
U-251 = tested on: U-251
MDA-MB-231 = tested on: MDA-MB-231
SK-MEL-2 = tested on: SK-MEL-2
HT-29 = tested on: HT-29
PC-3 = tested on: PC-3

Compound	GI50 (SNB-19)	GI50 (ACHN)	GI50 (786-0)	GI50 (COLO 205)	GI50 (BT-549)	GI50 (MDA-N)	GI50 (SK-MEL-5)	GI50 (SK-OV-3)	GI50 (T47D)	GI50 (M14)	GI50 (IGROV-1)	GI50 (EKVX)	GI50 (SF-295)	GI50 (OVCAR-5)	GI50 (LOX IMVI)	GI50 (U-251)	GI50 (MDA-MB-231)	GI50 (SK-MEL-2)	GI50 (HT-29)	GI50 (PC-3)
COc1cc2c(c(OC)c1OC)C(=O)[C@H](Br)[C@H]2NC(=O)NCCCl	> 100 µM (inactive)	> 100 µM (inactive)	> 100 µM (inactive)	50.8 µM (inactive)	38.6 µM (inactive)	35.2 µM (inactive)	37.2 µM (inactive)	59 µM (inactive)	> 100 µM (inactive)	86.1 µM (inactive)	68.1 µM (inactive)	50.1 µM (inactive)	> 100 µM (inactive)	> 100 µM (inactive)	47.1 µM (inactive)	51.1 µM (inactive)	> 100 µM (inactive)	> 100 µM (inactive)	> 100 µM (inactive)	> 100 µM (inactive)
O=c1nc2n(CCO)c(-c3ccccc3)c(-c3ccccc3)nc-2c(=O)[nH]1	> 100 µM (inactive)	> 100 µM (inactive)	> 100 µM (inactive)	> 100 µM (inactive)	> 100 µM (inactive)	> 100 µM (inactive)	> 100 µM (inactive)	> 100 µM (inactive)	> 100 µM (inactive)	> 100 µM (inactive)	> 100 µM (inactive)	> 100 µM (inactive)	> 100 µM (inactive)	> 100 µM (inactive)	> 100 µM (inactive)	> 100 µM (inactive)	> 100 µM (inactive)	> 100 µM (inactive)	> 100 µM (inactive)	> 100 µM (inactive)
CN(C)CCNC(=O)c1ccc(Cl)c2cc3ccccc3nc12	0.998 µM (active)	0.424 µM (active)	0.362 µM (active)	0.446 µM (active)	2.35 µM (inactive)	0.889 µM (active)	1.16 µM (inactive)	2.06 µM (inactive)	3.01 µM (inactive)	1.23 µM (inactive)	0.708 µM (active)	1.7 µM (inactive)	0.885 µM (active)	1.83 µM (inactive)	0.23 µM (active)	0.6 µM (active)	1.05 µM (active)	2.01 µM (inactive)	0.422 µM (active)	0.807 µM (active)
CC1(C)CC2(C)ON=C(c3ccccc3)N2c2ccccc2N1 (stereo not given)	24.2 µM (inactive)	19.5 µM (inactive)	23.3 µM (inactive)	19.5 µM (inactive)	17.8 µM (inactive)	21.2 µM (inactive)	16.7 µM (inactive)	21.7 µM (inactive)	21.9 µM (inactive)	19.6 µM (inactive)	32.1 µM (inactive)	24 µM (inactive)	28.7 µM (inactive)	46.9 µM (inactive)	17.3 µM (inactive)	19.8 µM (inactive)	14.4 µM (inactive)	20.9 µM (inactive)	16.4 µM (inactive)	14.8 µM (inactive)
O=C1O[C@H]2[C@H](OC(=O)c3cc(O)c(O)c(O)c3)[C@@H](OC(=O)c3cc(O)c(O)c4c3[C@@H]3C1=CC(=O)C(O)(O)C3(O)O4)[C@H](OC(=O)c1cc(O)c(O)c(O)c1)O[C@@H]2COC(=O)c1cc(O)c(O)c(O)c1 (stereo not given in full) [TERCHEBIN]	> 100 µM (inactive)	27.9 µM (inactive)	60.8 µM (inactive)	39.5 µM (inactive)	> 100 µM (inactive)	53.5 µM (inactive)	75.7 µM (inactive)	38.3 µM (inactive)	54.7 µM (inactive)	60.7 µM (inactive)	47.8 µM (inactive)	39.4 µM (inactive)	48.4 µM (inactive)	65.6 µM (inactive)	25.1 µM (inactive)	54.1 µM (inactive)	41.9 µM (inactive)	> 100 µM (inactive)	37.4 µM (inactive)	34.9 µM (inactive)
COC1=CC(=O)c2c(O)c3c(c(O)c2C1=O)C=C(C)OC3O (stereo not given)	2.48 µM (inactive)	2.1 µM (inactive)	3.24 µM (inactive)	0.222 µM (active)	2.07 µM (inactive)	1.66 µM (inactive)	0.269 µM (active)	8.45 µM (inactive)	2.13 µM (inactive)	0.281 µM (active)	1.98 µM (inactive)	7.35 µM (inactive)	2.09 µM (inactive)	2.43 µM (inactive)	0.597 µM (active)	2.48 µM (inactive)	1.76 µM (inactive)	1.96 µM (inactive)	0.541 µM (active)	2.64 µM (inactive)
COC(=O)[C@](C)(Cc1ccccc1)NC(=O)[C@@H](C)N1[C@@H](c2ccccc2)COC1(C)C	> 100 µM (inactive)	36.7 µM (inactive)	72.4 µM (inactive)	20.1 µM (inactive)	48.2 µM (inactive)	44.2 µM (inactive)	43.5 µM (inactive)	> 100 µM (inactive)	46.5 µM (inactive)	63.7 µM (inactive)	51.2 µM (inactive)	57.9 µM (inactive)	53 µM (inactive)	> 100 µM (inactive)	77.6 µM (inactive)	57.7 µM (inactive)	47 µM (inactive)	> 100 µM (inactive)	46.9 µM (inactive)	29.1 µM (inactive)
Cc1ccc(C(=O)/C=C2\Nc3cccnc3NC2=O)cc1	> 100 µM (inactive)	> 100 µM (inactive)	40.2 µM (inactive)	> 100 µM (inactive)	> 100 µM (inactive)	> 100 µM (inactive)	> 100 µM (inactive)	> 100 µM (inactive)	> 100 µM (inactive)	> 100 µM (inactive)	> 100 µM (inactive)	> 100 µM (inactive)	> 100 µM (inactive)	> 100 µM (inactive)	> 100 µM (inactive)	39.5 µM (inactive)	30.8 µM (inactive)	> 100 µM (inactive)	> 100 µM (inactive)	> 100 µM (inactive)
CCOC(=O)C(=O)CC(=O)C1=C(c2ccccc2OC)CC(c2cccs2)=CC1=O	> 100 µM (inactive)	> 100 µM (inactive)	> 100 µM (inactive)	39.7 µM (inactive)	> 100 µM (inactive)	36.1 µM (inactive)	44.1 µM (inactive)	29.7 µM (inactive)	90.6 µM (inactive)	26.1 µM (inactive)	15.3 µM (inactive)	> 100 µM (inactive)	18.7 µM (inactive)	> 100 µM (inactive)	83.9 µM (inactive)	86.3 µM (inactive)	93.3 µM (inactive)	78.9 µM (inactive)	50.2 µM (inactive)	24 µM (inactive)
NC(=O)N/N=C1\C[C@H]2CCCC[C@H]2C1	84.7 µM (inactive)	> 100 µM (inactive)	> 100 µM (inactive)	> 100 µM (inactive)	42.7 µM (inactive)	> 100 µM (inactive)	> 100 µM (inactive)	> 100 µM (inactive)	> 100 µM (inactive)	> 100 µM (inactive)	> 100 µM (inactive)	> 100 µM (inactive)	> 100 µM (inactive)	> 100 µM (inactive)	> 100 µM (inactive)	> 100 µM (inactive)	> 100 µM (inactive)	> 100 µM (inactive)	> 100 µM (inactive)	> 100 µM (inactive)
